Measured values as given in PubChem BioAssay (NCI).
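How tested: cells in 96-well plates exposed to compound for 48 hours at five concentrations. Definition used: TGI = concentration required for complete inhibition of growth.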

Legend:
Assay in all cases: inhibition of tumour cell growth, NCI panel, 48 h
786-0 renal = test system: 786-0 renal
A498 renal = test system: A498 renal
A549 NSCLC = test system: A549 NSCLC
ACHN renal = test system: ACHN renal
CCRF-CEM leukemia = test system: CCRF-CEM leukemia
COLO 205 colon = test system: COLO 205 colon
DLD-1 colon = test system: DLD-1 colon
DMS 114 small cell lung = test system: DMS 114 small cell lung
DMS 273 small cell lung = test system: DMS 273 small cell lung
EKVX NSCLC = test system: EKVX NSCLC
HCC-2998 colon = test system: HCC-2998 colon
HCT-116 colon = test system: HCT-116 colon
HCT-15 colon = test system: HCT-15 colon
HL-60(TB) leukemia = test system: HL-60(TB) leukemia
HOP-18 NSCLC = test system: HOP-18 NSCLC
HOP-62 NSCLC = test system: HOP-62 NSCLC
HT29 colon = test system: HT29 colon
IGROV1 ovarian = test system: IGROV1 ovarian
K-562 leukemia = test system: K-562 leukemia
KM12 colon = test system: KM12 colon
KM20L2 colon = test system: KM20L2 colon
LOX IMVI melanoma = test system: LOX IMVI melanoma
LXFL 529 NSCLC = test system: LXFL 529 NSCLC
M14 melanoma = test system: M14 melanoma
M19-MEL melanoma = test system: M19-MEL melanoma
MALME-3M melanoma = test system: MALME-3M melanoma
MOLT-4 leukemia = test system: MOLT-4 leukemia
NCI-H226 lung = test system: NCI-H226 lung
NCI-H23 lung = test system: NCI-H23 lung
NCI-H460 lung = test system: NCI-H460 lung
NCI-H522 lung = test system: NCI-H522 lung
OVCAR-3 ovarian = test system: OVCAR-3 ovarian
OVCAR-5 ovarian = test system: OVCAR-5 ovarian
OVCAR-8 ovarian = test system: OVCAR-8 ovarian
RPMI-8226 leukemia = test system: RPMI-8226 leukemia
RXF 393 renal = test system: RXF 393 renal
SF-295 CNS = test system: SF-295 CNS
SF-539 CNS = test system: SF-539 CNS
SK-MEL-2 melanoma = test system: SK-MEL-2 melanoma
SK-MEL-28 melanoma = test system: SK-MEL-28 melanoma
SK-MEL-5 melanoma = test system: SK-MEL-5 melanoma
SK-OV-3 ovarian = test system: SK-OV-3 ovarian
SN12C renal = test system: SN12C renal
SNB-19 CNS = test system: SNB-19 CNS
SNB-75 CNS = test system: SNB-75 CNS
SNB-78 CNS = test system: SNB-78 CNS
SR leukemia = test system: SR leukemia
SW-620 colon = test system: SW-620 colon
TK-10 renal = test system: TK-10 renal
U251 CNS = test system: U251 CNS
UACC-257 melanoma = test system: UACC-257 melanoma
UACC-62 melanoma = test system: UACC-62 melanoma
UO-31 renal = test system: UO-31 renal
CAKI-1 renal = test system: CAKI-1 renal
HOP-92 NSCLC = test system: HOP-92 NSCLC
OVCAR-4 ovarian = test system: OVCAR-4 ovarian
SF-268 CNS = test system: SF-268 CNS

## IC[P+]1(c2ccccc2)CCCC1
786-0 renal
  TGI: > 100 µM
A498 renal
  TGI: 88.6 µM
A549 NSCLC
  TGI: > 100 µM
ACHN renal
  TGI: > 100 µM
CCRF-CEM leukemia
  TGI: > 100 µM
COLO 205 colon
  TGI: 31 µM
DLD-1 colon
  TGI: > 100 µM
DMS 114 small cell lung
  TGI: 36.3 µM
DMS 273 small cell lung
  TGI: > 100 µM
EKVX NSCLC
  TGI: 46.1 µM
HCC-2998 colon
  TGI: > 100 µM
HCT-116 colon
  TGI: > 100 µM
HCT-15 colon
  TGI: > 100 µM
HL-60(TB) leukemia
  TGI: > 100 µM
HOP-18 NSCLC
  TGI: > 100 µM
HOP-62 NSCLC
  TGI: > 100 µM
HT29 colon
  TGI: > 100 µM
IGROV1 ovarian
  TGI: > 100 µM
K-562 leukemia
  TGI: > 100 µM
KM12 colon
  TGI: > 100 µM
KM20L2 colon
  TGI: > 100 µM
LOX IMVI melanoma
  TGI: > 100 µM
LXFL 529 NSCLC
  TGI: > 100 µM
M14 melanoma
  TGI: > 100 µM
M19-MEL melanoma
  TGI: 81 µM
MALME-3M melanoma
  TGI: > 100 µM
MOLT-4 leukemia
  TGI: > 100 µM
NCI-H226 lung
  TGI: 89 µM
NCI-H23 lung
  TGI: > 100 µM
NCI-H460 lung
  TGI: 76.9 µM
NCI-H522 lung
  TGI: 21.6 µM
OVCAR-3 ovarian
  TGI: > 100 µM
OVCAR-5 ovarian
  TGI: > 100 µM
OVCAR-8 ovarian
  TGI: > 100 µM
RPMI-8226 leukemia
  TGI: > 100 µM
RXF 393 renal
  TGI: > 100 µM
SF-295 CNS
  TGI: > 100 µM
SF-539 CNS
  TGI: > 100 µM
SK-MEL-2 melanoma
  TGI: > 100 µM
SK-MEL-28 melanoma
  TGI: > 100 µM
SK-MEL-5 melanoma
  TGI: 83.1 µM
SK-OV-3 ovarian
  TGI: > 100 µM
SN12C renal
  TGI: 60.8 µM
SNB-19 CNS
  TGI: > 100 µM
SNB-75 CNS
  TGI: 62.7 µM
SNB-78 CNS
  TGI: > 100 µM
SR leukemia
  TGI: > 100 µM
SW-620 colon
  TGI: > 100 µM
TK-10 renal
  TGI: > 100 µM
U251 CNS
  TGI: 29.4 µM
UACC-257 melanoma
  TGI: > 100 µM
UACC-62 melanoma
  TGI: > 100 µM
UO-31 renal
  TGI: > 100 µM

## Cn1ccnc1CCc1c(Cl)cccc1Cl
786-0 renal
  TGI: > 100 µM
A498 renal
  TGI: > 100 µM
A549 NSCLC
  TGI: > 100 µM
ACHN renal
  TGI: > 100 µM
CAKI-1 renal
  TGI: > 100 µM
CCRF-CEM leukemia
  TGI: > 100 µM
COLO 205 colon
  TGI: > 100 µM
DLD-1 colon
  TGI: > 100 µM
DMS 114 small cell lung
  TGI: > 100 µM
DMS 273 small cell lung
  TGI: > 100 µM
HCT-116 colon
  TGI: > 100 µM
HCT-15 colon
  TGI: > 100 µM
HL-60(TB) leukemia
  TGI: > 100 µM
HOP-18 NSCLC
  TGI: > 100 µM
HOP-62 NSCLC
  TGI: > 100 µM
HOP-92 NSCLC
  TGI: > 100 µM
HT29 colon
  TGI: > 100 µM
IGROV1 ovarian
  TGI: > 100 µM
K-562 leukemia
  TGI: > 100 µM
KM12 colon
  TGI: > 100 µM
KM20L2 colon
  TGI: > 100 µM
LOX IMVI melanoma
  TGI: > 100 µM
LXFL 529 NSCLC
  TGI: > 100 µM
M14 melanoma
  TGI: > 100 µM
M19-MEL melanoma
  TGI: > 100 µM
MALME-3M melanoma
  TGI: > 100 µM
MOLT-4 leukemia
  TGI: > 100 µM
NCI-H226 lung
  TGI: > 100 µM
NCI-H23 lung
  TGI: > 100 µM
NCI-H460 lung
  TGI: > 100 µM
NCI-H522 lung
  TGI: > 100 µM
OVCAR-3 ovarian
  TGI: > 100 µM
OVCAR-4 ovarian
  TGI: > 100 µM
OVCAR-5 ovarian
  TGI: > 100 µM
OVCAR-8 ovarian
  TGI: > 100 µM
RPMI-8226 leukemia
  TGI: > 100 µM
RXF 393 renal
  TGI: > 100 µM
SF-268 CNS
  TGI: > 100 µM
SF-295 CNS
  TGI: > 100 µM
SF-539 CNS
  TGI: > 100 µM
SK-MEL-2 melanoma
  TGI: > 100 µM
SK-MEL-28 melanoma
  TGI: > 100 µM
SK-MEL-5 melanoma
  TGI: > 100 µM
SK-OV-3 ovarian
  TGI: > 100 µM
SN12C renal
  TGI: > 100 µM
SNB-75 CNS
  TGI: > 100 µM
SNB-78 CNS
  TGI: > 100 µM
SR leukemia
  TGI: > 100 µM
SW-620 colon
  TGI: > 100 µM
TK-10 renal
  TGI: > 100 µM
U251 CNS
  TGI: > 100 µM
UACC-257 melanoma
  TGI: > 100 µM
UACC-62 melanoma
  TGI: > 100 µM
UO-31 renal
  TGI: > 100 µM
